Test results as given in US10730883B2 (AbbVie Inc., priority 2015, dated 2020).
≈ marks a conversion by molar mass, not a printed value.

Legend:
[1] = Moisture sorption isotherm; assay type: physicochemical; settings: 90% relative humidity at 25° C.
Method: Moisture vapor isotherm data were collected with a DVS Advantage (Surface Measurement Systems Ltd, Alperton, United Kingdom). The sample powder (5 mg to 20 mg) was loaded on a tared pan of the DVS Advantage. The moisture sorption isotherm data were collected from 30-0-90-0-30% relative humidity in 10% relative humidity intervals. For each step, the dm/dt criteria was 0.001% over 5 minutes, a minimum dm/dt time of 30 minutes, and a maximum dm/dt of 120 minutes. Data was collected isothermally at 25° C. with a nitrogen flow rate of 200 cm^3/minute. The post DVS sample was kept at approximately 30% relative humidity before PXRD analysis.

[2] = Hygroscopicity / moisture sorption isotherm of solid state forms; assay type: physicochemical
Text: FIG. 6A is a moisture sorption isotherm corresponding to the Amorphous Freebase (via dehydration).
FIG. 6C is a moisture sorption isotherm corresponding to the Tartrate Hydrate.
FIG. 6D is a moisture sorption isotherm corresponding to the Freebase Anhydrate Form D.
In one embodiment, the Tartrate Hydrate has a moisture sorption isotherm profile showing a weight gain of about 1% to about 2% when relative humidity is increased from about 10% relative humidity to about 90% relative humidity at a temperature of 25° C.

[3] = Chemical stability of solid state forms in closed vials at controlled temperature and relative humidity; assay type: physicochemical
Method: (§1) The Amorphous Freebase, however, is hygroscopic and can comprise as much as 12% by weight water at 25° C./90% relative humidity. Environmental controls potentially are required to ensure appropriate control of potency and water content during storage, dispensing, and handling of the Amorphous Freebase.
(§2) The Tartrate Hydrate, however, potentially will convert to an amorphous tartrate below 10% relative humidity, when heated, or when compressed or under shear.

Equilibrium solubility = assay type: physicochemical
Method: After equilibration, the mixtures were inspected to assure that the amount of excess solid was sufficient to permit re-characterization. […] The pH of aqueous suspensions was determined after equilibration. The solid phase was separated from the liquid phase by centrifugation at 3300 rpm at equilibration temperatures (i.e., 25° C. or 37° C.). The supernatant was then filtered (13 mm Acrodisc® syringe filter with 0.45μ GHP membrane, Pall® Life Sciences, Ann Arbor, Mich.) to discard the initial 2 mL (to saturate filter) and capture the last 1 mL for analysis. The filtrate was diluted as needed for quantification of the material studied by HPLC method (as detailed elsewhere herein). The physical form of the recovered solid was characterized by powder X-ray diffraction to examine whether or not phase change had occurred

[4] = Stability of solid state forms to light and peroxide; assay type: physicochemical
Method: as §1, §2

[5] = Solid state accelerated stability study; assay type: physicochemical; settings: for Growth of degradation products: open and closed glass vials
Method: Samples (approximately 1 mg to 2 mg) of the solid state form were weighed into glass vials and tested as described below.

[6] = Solubility of solid state forms; assay type: physicochemical; settings: Amorphous Freebase: relative to the corresponding crystalline forms
[7] = Bioavailability of solid state forms; assay type: in vivo; settings: relative to the corresponding crystalline forms
[8] = general statement on the solid state form

## CC[C@@H]1CN(C(=O)NCC(F)(F)F)C[C@@H]1c1cnc2cnc3[nH]ccc3n12 [Amorphous Freebase, (3S,4R)-3-ethyl-4-(3H-imidazo[1,2-a]pyrrolo[2,3-e]pyrazin-8-yl)-N-(2,2,2-trifluoroethyl)pyrrolidine-1-carboxamide]
[1]
  Moisture sorption (reversibly sorbs up to): up to 13%
[2]; 25° C./90% relative humidity
  water content (hygroscopicity): ≤ 12 % by weight
[2]; [8]
  hygroscopicity: hygroscopic
[3]; closed vials, 30° C./65% relative humidity and 40° C./75% relative humidity over 12 weeks, 50° C./75% relative humidity over 6 weeks
  degradation observed in closed vials: no degradation
[3]; [8]
  chemical stability: acceptable chemical stability
Equilibrium solubility; FasSIF (pH 6.5 at 37° C.)
  Solubility: 1.14 mg/mL (≈ 3 mM)
Equilibrium solubility; FedSIF (pH 5.0 at 37° C.)
  Solubility: 2.13 mg/mL (≈ 5.6 mM)
Equilibrium solubility; pH 1 at 25° C.
  Solubility: >3.5 mg/mL
Equilibrium solubility; pH 7.4 at 25° C.
  Solubility: 0.68 mg/mL (≈ 1.79 mM)
[4]
  stability to light and peroxide: acceptable stability
[5]; 40° C./75% relative humidity, up to 24 weeks
  Growth of degradation products: no growth of degradation products
[5]; 50° C./75% relative humidity, up to six weeks
  Growth of degradation products: no growth of degradation products
[5]; solid state accelerated stability study
  chemical stability: acceptable
[5]; storage conditions of the accelerated stability study
  Change in attributes evaluated (description, crystal form, assay, impurities and water content): No material change
[6]
  Solubility: greater solubility
[7]
  bioavailability: increased bioavailability
